Tested on: luciferase-expressing U-87 MG cells
Test: Cancer treating effect in brain tumor model (bioluminescence signals)
Assay type: in vivo, mouse
Procedure: The NP-cur aqueous dispersion prepared according to Example 1-1 was intravenously injected daily at a dose of 200 μL from day 3 of the transplantation of the cancer cells in the brain tumor model prepared according to Example 3-1. […] For the control groups to which the drug was not administered, a group (control of FIG. 11) to which the F-127 aqueous solution was intravenously injected daily for 3 weeks at a dose of 200 μL, and a group (free curcumin of FIG. 11) to which curcumin which was not loaded in the polymeric nanoparticles but was dissolved in an organic solvent, dimethyl sulfoxide (DMSO, Daejung Chemicals & Metals Co., LTD., Korea), was intraperitoneally injected at a dosage of 360 mg/kg daily for 3 weeks was selected to observe the bioluminescence signals in the same manner as in the NP-cur administration experimental group. Finally, the bioluminescence signals observed in the two control groups and experimental group and the results of comparative analysis thereof are shown in FIG. 11.

`COc1cc(/C=C/C(=O)CC(=O)/C=C/c2ccc(O)c(OC)c2)ccc1O` [curcumin] was tested, and the “effect on tumor growth” value (NP-cur 0.2 mg/kg/d i.v., curcumin solution 360 mg/kg/d i.p.) was “only slightly slowed” and the “bioluminescence intensity of brain tumor over time (days 7, 14, 21)” value (NP-cur 200 μL i.v. daily (0.2 mg/kg/d curcumin), free curcumin in DMSO i.p. 360 mg/kg daily for 3 weeks) was “still showed a large signal increase”.

From patent US20170209373A1, “MULTIFUNCTIONAL POLYMERIC NANOPARTICLE FOR DIAGNOSIS OR TREATMENT OF CEREBRAL DISEASES AND A PREPARATION METHOD THEREOF” (KOREA INSTITUTE OF SCIENCE AND TECHNOLOGY, priority 2016, published 2017)
